We go through three substances from US8318898B2, “Synthetic peptides for use as inhibitors of neurotransmitter secretion and as inducers of cellular relaxation” (Universite de Lausanne, priority 2005, dated 2012).

* marks the point of attachment. Decanoyl = CCCCCCCCCC(=O)*; CH2Cl = ClC* Bounds are passed on as bounds.

Data set [1] relates to rat lung fibroblast (LF). The data set can be described thus: Cell contraction/relaxation on wrinkling silicone substrate, live videomicroscopy. The data set is classed as cell-based. The settings on record: 10 μM and 50 μM. The method, then: To study the effect(s) of the peptides on muscle cells, which associate with neurosecretory cells at neuromuscular junctions, peptides were cultured with rat lung fibroblast (LF) grown over wrinkling substrate (silicon) which can mimic the effects of contraction. These cells have a myofibroblastic phenotype, e.g., production of TGF-β, which make them suitable for cellular contraction/relaxation studies.
Wrinkling silicone substrates were prepared as essentially described previously (Harris, et al., Science. 208:177-179, 1980; Hinz, et al., Mol Biol Cell. 12:2730-41, 2001). Briefly, 50 μl of silicone (poly dimethyl siloxane; 30.000 centistokes, Dow Corning, Midland, Mich.) were deposited onto a 35 mm round glass coverslip at the bottom of a self-made observation chamber, which was centrifuged at 1.000 rpm for 2 minutes to spread the viscous fluid. The silicone surface was then crosslinked by passing it through a Bunsen flame; a flaming time of 1 second produced a surface stiffness that restricted wrinkle formation to fibroblasts with high contractile force (Hinz et al., supra). The polymerized silicone surface was finally coated with 10 μg/ml collagen type I (Sigma) for 2 hours at 37° C. Lung fibroblast cells were seeded at a density of 3.5×10^3 cells/cm^2 and cultured for 1-2 days before the experiment. […]

The test system of data set [2] is PC12 cells. The data set is described as follows: Inhibition of [3H]norepinephrine neurosecretion by PC12 cells. Format: cell-based, rat. As to the method:
Using the neurosecretion assay described above, peptides fused to the TAT-PTD (L-TAT) were tested for inhibition of neurotransmitters and compared to use of L-TAT alone (SEQ ID NO: 3). In vitro screening for synthetic peptides capable of efficiently and selectively blocking neurotransmitter release in the PC12 cell line grown under defined conditions was performed.
PC12 cells were washed with DMEM-WM (Dulbecco's Modified Eagle Medium (GIBCO cat. no. 31968) completed with 25 units of penicillin and streptomycin each) and loaded for 1-2 h with [^3H] norepinephrine (NE; 0.5 μCi/ml) in DMEM-CM (DMEM-WM complemented with 6% horse serum and 6% fetal calf serum). Cells were washed for 1 h with DMEM-WM, and then washed 2 times at 5-minute intervals. Basal release was determined by a 15-minutes incubation with CaSB-glucose 5 mM K^+ (CaSB-glucose: 140 mM NaCl, 5 mM KCl, 2 mM CaCl2, 11 mM glucose, [pH 7.4]). The peptides were added to the cells at defined concentrations after loading with NE but before induction of secretion. Cells were depolarized with 85 mM K^+ (CaSB-glucose with Na^+ reduced accordingly) for 15 minutes to determine stimulated release. Superfusate (1 ml) was removed to tubes. Adherent cells were solubilized in CaSB-glucose-0.1% Triton (1 ml/well). The quantities of released and non-released radiolabeled neurotransmitter were determined by liquid scintillation counting of cleared superfusates and cell lysates, respectively. Total uptake was calculated by addition of released and retained radioactivity, and the percentage release was as calculated (released counts/total uptake counts)×100. Results were also expressed as percent inhibition of neurosecretion.

Data set [3] concerns the target T1, Recombinant furin (Homo sapiens, UniProt P09958). The data set is described as follows: biochemical. The data set is classed as biochemical. The method, then:
To determine if the peptides described herein have an effect on the activity of PC enzymes which are involved in a condition or disorder such as fibrosis, the effect of the peptides on furin activity in vitro was measured as percent inhibition of cleavage of the furin substrate fluorogenic t-butyloxycarbonyl (Boc)-RVRR-7-amino-4-methylcoumarin (MCA).
All in vitro enzyme studies were performed at room temperature in a final volume of 50-100 μl in 96-well flat-bottom black plates. The buffer consisted of 100 mM HEPES, 1 mM CaCl2, 0.5% TritonX-100, and 1 mM 2-β-mercaptoethanol pH 7.5. Assays were performed using Boc-RVRR-MCA as fluorogenic substrate at 100 μM. Recombinant furin (0.8 U of activity) was incubated with Boc-RVRR-MCA in the presence or absence of varying concentrations of synthetic peptides D-9Rac/am (SEQ ID NO. 15), L-Bel1 (SEQ ID NO. 3), or L-9K (SEQ ID NO. 6). One unit of activity is defined as the amount of furin that can release 1 μmol of MCA from the fluorogenic Boc-RVRR-MCA per min at 30° C. The release of highly fluorescent 7-amino 4-methyl coumarin (MCA) from the Boc-RVRR-MCA was monitored by a spectrofluorometer instrument at excitation and emission wavelengths of 370 nm/460 nm. […]

Data set [4] concerns PC-12 cells. The data set is described as follows: Actin cytoskeleton organization, phalloidin-TRITC staining. Conditions: 2 to 10 μM, 30 minutes, labeled or unlabeled. Format: cell-based, rat. The method, then:
Slides with PC-12 cells were prepared as stated previously for localization studies. Briefly, cells were exposed to FITC-labeled or unlabeled peptides, at various concentrations, for 30 minutes, fixed and then permeabilized. Subsequently, F-actin was fluorescently labeled with phalloidin-Tetramethyl Rhodamine Iso-Thiocyanate (TRITC) (Sigma Aldrich) conjugate, diluted on saponin buffer (0.25 μg/ml), and nuclear staining with DAPI dihydrochloride (Sigma Aldrich) (0.02 μg/ml), at room temperature for maximum 30 minutes. Finally, slides were mounted and sealed, and stored at 4° C. protected from light. The effect of the peptides to actin polymerization was analyzed by confocal microscopy, as described before.

For data set [5] the following is noted: 10% concentration in oil/water emulsion, 30-day treatment; cited from earlier work.
The test system of data set [6] is PC12 cells. The data set is classed as cell-based, rat. As to the method:
[…]. Very little toxicity was present at 24 hours, and cytotoxicity at 48 hours was only slightly greater than at 24 hours. Cytotoxicity generally dipped to approximately 90% live cells when peptides were administered at 500 μM.

For data set [7], the target named is T1, Recombinant furin. Conditions: CALBIOCHEM; cited from earlier work.
The subject of data set [8] is PC12-ES cells. The data set is described as follows: Evoked neurotransmitter secretion by undifferentiated PC12-ES cells, furin inhibitor and arginine rich peptides. Format: cell-based, rat. The settings on record: for inhibition of evoked neurotransmitter secretion by PC12-ES cells: potassium 80 mM, 15 minutes.
Data set [9] addresses T2, furin (Rattus norvegicus, UniProt P23377).
T2 construct: Furin activity was constitutively detected in PC12-ES cells; endogenous in cells; host or cells: PC12-ES cells (lysate)
Format: biochemical. The settings on record: EDTA 50 mM, EGTA 50 mM, Dec-RVKR-CMK 50 μM. The method, then:
To monitor the intracellular furin activity, 80% confluent PC12-ES cells were washed twice with ice-cold phosphate-buffered saline (PBS1×) by centrifugation at 800×g for 5 minutes at 4° C., resuspended in 100 mM HEPES, 1 mM CaCl2, 0.5% TritonX-100, and 1 mM 2-β-mercaptoethanol, pH 7.5, sonicated 6 times at 4° C. for 10 seconds, and then centrifuged at 8000×g for 20 minutes at 4° C. The protein concentration in the samples was determined using a bicinchonic acid protein assay kit (Pierce Chemical Co.).
Intracellular furin activity was measured with a furin-specific fluorogenic substrate, t-butyloxycarbonyl (Boc)-[…]-7-amino-4-methylcoumarin (MCA). Briefly, the cell lysate (20 μg-60 μg of protein) prepared as described above was incubated with 100 μM Boc-RVRR-MCA in a 96-well flat-bottom black plate for at least 6 hours at room temperature and fluorescence measured by excitation at 365 nm and emission at 450 nm.

T1 sequence (P09958 108-794): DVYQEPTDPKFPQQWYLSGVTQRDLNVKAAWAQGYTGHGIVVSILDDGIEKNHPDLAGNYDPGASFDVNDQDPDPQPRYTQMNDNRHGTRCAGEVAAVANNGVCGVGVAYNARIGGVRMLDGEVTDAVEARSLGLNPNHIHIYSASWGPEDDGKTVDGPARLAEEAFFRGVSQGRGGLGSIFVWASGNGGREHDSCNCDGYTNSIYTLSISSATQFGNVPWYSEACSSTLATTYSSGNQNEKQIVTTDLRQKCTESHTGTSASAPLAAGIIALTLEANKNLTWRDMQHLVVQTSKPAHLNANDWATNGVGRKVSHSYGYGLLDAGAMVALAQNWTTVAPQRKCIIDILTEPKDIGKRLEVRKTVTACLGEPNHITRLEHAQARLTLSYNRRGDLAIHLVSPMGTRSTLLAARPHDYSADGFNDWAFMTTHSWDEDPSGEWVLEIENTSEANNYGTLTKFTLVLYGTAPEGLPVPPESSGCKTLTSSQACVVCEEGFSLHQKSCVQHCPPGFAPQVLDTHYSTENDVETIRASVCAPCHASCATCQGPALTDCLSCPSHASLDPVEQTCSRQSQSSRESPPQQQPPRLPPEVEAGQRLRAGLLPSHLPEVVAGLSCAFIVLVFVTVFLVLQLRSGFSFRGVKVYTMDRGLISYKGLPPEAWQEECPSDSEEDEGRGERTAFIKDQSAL
T2 sequence (P23377 108-793): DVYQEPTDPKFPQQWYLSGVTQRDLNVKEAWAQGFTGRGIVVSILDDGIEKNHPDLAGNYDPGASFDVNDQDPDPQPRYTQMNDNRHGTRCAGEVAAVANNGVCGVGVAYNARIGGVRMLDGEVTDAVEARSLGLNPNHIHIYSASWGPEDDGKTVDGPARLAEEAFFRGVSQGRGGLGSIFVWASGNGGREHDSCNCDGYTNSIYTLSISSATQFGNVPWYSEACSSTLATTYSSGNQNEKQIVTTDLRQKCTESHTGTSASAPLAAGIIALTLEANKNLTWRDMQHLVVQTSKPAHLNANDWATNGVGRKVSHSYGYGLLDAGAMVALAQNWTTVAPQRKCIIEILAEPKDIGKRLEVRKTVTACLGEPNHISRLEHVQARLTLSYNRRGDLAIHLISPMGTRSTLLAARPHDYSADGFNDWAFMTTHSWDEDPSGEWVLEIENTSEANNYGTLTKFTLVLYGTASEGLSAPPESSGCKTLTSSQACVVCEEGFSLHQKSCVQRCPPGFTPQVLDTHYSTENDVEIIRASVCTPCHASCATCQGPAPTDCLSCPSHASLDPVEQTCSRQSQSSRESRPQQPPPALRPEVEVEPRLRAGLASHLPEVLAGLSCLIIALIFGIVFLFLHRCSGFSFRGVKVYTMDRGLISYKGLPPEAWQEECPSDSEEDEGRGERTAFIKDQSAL

Turning to “9K-L: SEQ ID NO: 6 (GYGKKKKKKKKKG; Synthetic peptide 9K-L)”, the “relaxing effect on lung myofibroblasts on silicon substrate” value in [1] is “not observed”. Moreover, the “inhibition of neurotransmitter-evoked secretion” value in data set [2] (concentration not given, peptide alone) is recorded as “approximately 20%”. Also, in [3], the “concentration for complete blockade of cleavage of Boc-RVRR-MCA by furin” value is more than 3.5 µM. In addition, in data set [4], the “effect on actin content and organization” value is “No effect”.

Regarding “Ac-Glu-Glu-Met-Gln-Arg-Arg-NH2 (Ac-EEMQRR-NH2) [L-Argireline]”, in data set [2] (50 μM (mixture: 50 μM each)), the inhibition of secretion result was “no inhibition”. In addition, the reduced wrinkle depth entry in [5] is recorded as “up to 30%”.

For “Decanoyl-Arg-Val-Lys-Arg-CMK (Decanoyl-RVKR-CH2Cl) [FI-I, reference compound]”, the “cytotoxicity (MTT)” value in data set [6] is recorded as “no marked cytotoxicity”. Moreover, the Ki in data set [7] was 1 nM. Further, in [8], the “dose dependence of inhibition of evoked secretion” value is given as “dose dependent”. Moreover, the “inhibition of evoked neurotransmitter secretion by PC12-ES cells” value in data set [8] (10 μM) was determined as 12.6%; in data set [8] (100 μM), 50%. The “inhibition of in vitro furin activity (in words)” value in data set [3] (Boc-RVRR-MCA 100 μM as substrate) is on record as “inhibited”. In addition, the “inhibition of intracellular furin activity (in words)” value in [9] is “inhibited”.

What is called Ki is a measure of affinity in units of concentration, obtained from inhibition or displacement.
